Measured values from ChEMBL document CHEMBL3352097, “Small molecule inhibitors targeting activator protein 1 (AP-1)” (J Med Chem, 2014).

Assays:
[1] = target: Nuclear factor NF-kappa-B complex (Homo sapiens, UniProt Q00653+P19838+Q04206); assay: Inhibition of NF-kappaB-mediated transcriptional activation in human Jurkat cells by luciferase reporter gene assay; assay type: cell-based
Transcription factor Jun [2] = target: T1, Transcription factor Jun (Homo sapiens, UniProt P05412); assay: Inhibition of AP-1-mediated transcriptional activation in human Jurkat cells by luciferase reporter gene assay; assay type: cell-based
Transcription factor Jun [3] = target: T1, Transcription factor Jun; assay: Inhibition of AP-1 (unknown origin) by FRET assay
Transcription factor Jun [4] = target: T1, Transcription factor Jun; assay: Inhibition of AP-1 (unknown origin) binding to AP-1 oligonucleotide by gel shift assay
Transcription factor Jun [5] = target: Transcription factor Jun (Rattus norvegicus, UniProt P17325); assay: Inhibition of AP-1-mediated collagenase production in IL1alpha-stimulated Lewis rat synovial cells
Transcription factor Jun [6] = target: T1, Transcription factor Jun; assay: Inhibition of AP-1 (unknown origin) expressed in TPA-stimulated mouse NIH3T3 cells by luciferase reporter gene assay; assay type: cell-based
[7] = target: Transcription factor Jun (Mus musculus) (UniProt P05627); assay: Inhibition of AP-1-mediated transcriptional activation in lipopolysaccharide-stimulated mouse RAW 264.7 cells assessed ratio of luciferase activity normalized to Renilla luciferase activity by luciferase reporter gene assay
Transcription factor Jun [8] = target: T1, Transcription factor Jun; assay: Inhibition of AP-1-mediated transcriptional activation in HEK293 cells by luciferase reporter gene assay; assay type: cell-based
Rattus norvegicus = species on record: Rattus norvegicus; assay: Antiinflammatory activity in adjuvant-induced arthritis rat model assessed as reduction in swelling in noninjected foot; assay type: functional
Transcription factor Jun [9] = target: T1, Transcription factor Jun; assay: Inhibition of AP-1-mediated transcriptional activation in human HeLa cells at 10 ug/ml; assay type: cell-based
Transcription factor Jun [10] = target: T1, Transcription factor Jun; assay: Inhibition of AP-1-mediated transcriptional activation in human HeLa cells at 1 ug/ml; assay type: cell-based
Transcription factor AP1 [11] = target: T2, Transcription factor AP1 (Homo sapiens, UniProt P01100+P05412); assay: Inhibition of Fos-Jun dimer formation (unknown origin) by EMSA method; assay type: protein-complex assay
Transcription factor AP1 [12] = target: T2, Transcription factor AP1; assay: Inhibition of Fos-Jun dimer formation (unknown origin); assay type: protein-complex assay
Transcription factor Jun [13] = target: T1, Transcription factor Jun; assay: Inhibition of UVB-induced AP-1 activation (unknown origin) by cell-based assay

Chain of Nuclear factor NF-kappa-B complex (P19838 1-433 limits assumed): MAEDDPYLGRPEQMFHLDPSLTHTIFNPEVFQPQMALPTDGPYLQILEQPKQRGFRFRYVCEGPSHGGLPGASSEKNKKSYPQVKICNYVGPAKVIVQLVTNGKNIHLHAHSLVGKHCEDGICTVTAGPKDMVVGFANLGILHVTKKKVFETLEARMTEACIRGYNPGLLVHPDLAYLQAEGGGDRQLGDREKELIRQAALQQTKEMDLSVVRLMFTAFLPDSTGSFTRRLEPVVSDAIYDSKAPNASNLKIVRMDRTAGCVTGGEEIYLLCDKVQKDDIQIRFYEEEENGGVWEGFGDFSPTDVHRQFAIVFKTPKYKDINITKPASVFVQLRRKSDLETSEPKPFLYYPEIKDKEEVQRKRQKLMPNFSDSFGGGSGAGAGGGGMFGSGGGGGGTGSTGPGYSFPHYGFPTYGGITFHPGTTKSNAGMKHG
Chain of Nuclear factor NF-kappa-B complex (Q00653 1-454 limits assumed): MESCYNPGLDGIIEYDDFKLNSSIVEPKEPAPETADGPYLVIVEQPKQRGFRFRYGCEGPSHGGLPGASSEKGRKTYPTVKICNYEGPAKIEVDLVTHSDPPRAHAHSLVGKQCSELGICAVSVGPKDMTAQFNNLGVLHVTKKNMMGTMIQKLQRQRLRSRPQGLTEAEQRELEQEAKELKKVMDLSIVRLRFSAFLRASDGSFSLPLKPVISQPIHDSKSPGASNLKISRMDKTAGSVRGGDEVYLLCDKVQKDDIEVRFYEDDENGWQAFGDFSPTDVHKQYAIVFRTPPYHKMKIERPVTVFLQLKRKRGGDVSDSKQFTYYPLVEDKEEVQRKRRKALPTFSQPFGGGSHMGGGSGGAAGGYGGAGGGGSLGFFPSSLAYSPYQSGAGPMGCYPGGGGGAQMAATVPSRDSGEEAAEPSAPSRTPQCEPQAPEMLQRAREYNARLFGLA
Chain of Nuclear factor NF-kappa-B complex (Q04206 whole entry): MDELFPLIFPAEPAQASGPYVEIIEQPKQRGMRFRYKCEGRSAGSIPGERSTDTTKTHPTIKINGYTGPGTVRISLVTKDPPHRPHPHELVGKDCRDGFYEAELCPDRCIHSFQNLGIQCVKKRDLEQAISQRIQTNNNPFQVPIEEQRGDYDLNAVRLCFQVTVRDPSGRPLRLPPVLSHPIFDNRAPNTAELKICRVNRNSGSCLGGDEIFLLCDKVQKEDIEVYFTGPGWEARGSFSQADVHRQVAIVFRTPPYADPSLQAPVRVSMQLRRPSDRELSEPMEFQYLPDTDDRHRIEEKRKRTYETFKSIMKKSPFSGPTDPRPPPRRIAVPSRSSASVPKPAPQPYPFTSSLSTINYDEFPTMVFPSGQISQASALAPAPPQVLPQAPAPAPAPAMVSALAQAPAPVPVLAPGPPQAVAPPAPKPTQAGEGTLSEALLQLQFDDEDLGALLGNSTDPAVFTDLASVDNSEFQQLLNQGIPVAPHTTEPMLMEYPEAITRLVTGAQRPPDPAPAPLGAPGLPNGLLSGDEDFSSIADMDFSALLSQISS
T2 sequence (P05412 whole entry): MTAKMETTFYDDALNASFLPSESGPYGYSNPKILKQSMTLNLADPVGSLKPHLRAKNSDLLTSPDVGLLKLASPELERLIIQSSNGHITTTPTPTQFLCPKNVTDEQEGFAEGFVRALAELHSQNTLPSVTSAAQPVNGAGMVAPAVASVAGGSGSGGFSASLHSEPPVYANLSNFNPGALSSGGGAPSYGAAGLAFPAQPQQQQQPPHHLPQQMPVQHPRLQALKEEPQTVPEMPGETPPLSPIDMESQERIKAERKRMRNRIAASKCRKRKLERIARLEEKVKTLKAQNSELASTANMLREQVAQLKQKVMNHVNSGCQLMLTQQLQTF
T2 sequence (P01100 whole entry): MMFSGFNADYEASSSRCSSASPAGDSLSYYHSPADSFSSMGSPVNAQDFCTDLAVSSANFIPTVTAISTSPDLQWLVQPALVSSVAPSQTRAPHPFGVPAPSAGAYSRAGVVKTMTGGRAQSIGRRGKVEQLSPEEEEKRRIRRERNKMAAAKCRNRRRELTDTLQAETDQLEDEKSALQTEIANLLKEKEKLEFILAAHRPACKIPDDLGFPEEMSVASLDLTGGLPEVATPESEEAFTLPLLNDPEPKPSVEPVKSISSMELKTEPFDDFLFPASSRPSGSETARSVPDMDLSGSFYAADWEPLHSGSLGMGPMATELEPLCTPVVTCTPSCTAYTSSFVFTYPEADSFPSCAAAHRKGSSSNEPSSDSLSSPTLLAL
T1 sequence (P05412 whole entry): as the sequence (P05412 whole entry) above
Chain of Transcription factor Jun (Mus musculus) (P05627 whole entry): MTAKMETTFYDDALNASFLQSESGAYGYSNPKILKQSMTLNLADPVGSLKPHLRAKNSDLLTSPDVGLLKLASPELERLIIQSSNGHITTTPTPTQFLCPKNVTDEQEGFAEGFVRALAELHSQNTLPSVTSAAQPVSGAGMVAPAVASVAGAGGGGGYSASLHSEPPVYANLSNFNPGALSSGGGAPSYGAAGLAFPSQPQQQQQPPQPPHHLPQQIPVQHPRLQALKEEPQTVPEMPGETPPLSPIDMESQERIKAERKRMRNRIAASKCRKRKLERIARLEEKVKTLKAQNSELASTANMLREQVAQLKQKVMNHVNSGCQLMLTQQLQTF
Chain of Transcription factor Jun (Rattus norvegicus, UniProt P17325) (P17325 whole entry): as the sequence (P05627 whole entry) above, with S48N, A193T counted along it

Compound: O=C(Nc1cc(C(F)(F)F)cc(C(F)(F)F)c1)c1nnc(Cl)cc1C(F)(F)F
- IC50 [1]: 10 µM
- IC50 (Transcription factor Jun [2]): 10 µM

Compound: COC1=C(C)[C@@H]2CC(=O)O[C@@H]3C[C@H]4[C@H](C)[C@@H](O)[C@H](O)C(=O)[C@]4(C)[C@@H](C1=O)[C@@]32C [NOTHOSPONDIN]
- EC50 (Transcription factor Jun [3]): 0.13 µM

Compound: CCCc1c(C(=O)O)c(O)cc2c1C(=O)c1c(O)cccc1C2=O
- IC50 (Transcription factor Jun [4]): 100 µM
- IC50 (Transcription factor Jun [5]): 60 µM

Compound: CCOC(=O)c1cnc(N(C)N2C(=O)C=C(C)C2=O)nc1CC
- IC50 (Transcription factor Jun [2]): 0.035 µM

Compound: CCOC(=O)c1cnc(C(F)(F)F)nc1NN1C(=O)C=C(C)C1=O
- IC50 [1]: 1 µM
- IC50 (Transcription factor Jun [2]): 1 µM

Compound: CC(C)COc1ccc(C(=O)c2ccc(OCC(C)C)c(CCC(=O)O)c2)cc1
- IC50 (Transcription factor Jun [6]): 5 µM

Compound: O=C(c1cnc(Cl)nc1C(F)(F)F)N1COCc2ccc(C(F)(F)F)cc21
- IC50 (Transcription factor Jun [2]): 10 µM

Compound: C[C@@]12CC[C@@H]3[C@@](CC1=O)(C2)[C@@H](O)C[C@H]1[C@@]3(C)[C@@H](O)CC[C@@]1(C)C(=O)O
- Ratio [7]: 2.98

Compound: CNc1nc(C)c(-c2nc3ccccc3c(=O)n2-c2ccc(Cl)cc2)s1
- IC50 (Transcription factor Jun [8]): 1.2 µM

Compound: COc1cccc2nc(-c3cccs3)nc(NN3C(=O)C=C(C)C3=O)c12 [AS-602868]
- inhibition (INH) (Rattus norvegicus): 65%
- IC50 (Transcription factor Jun [2]): 0.008 µM

Compound: C[C@@H]1C[C@H]2[C@@H]3CCC4=CC(=O)C=C[C@]4(C)[C@@]3(F)[C@@H](O)C[C@]2(C)[C@@]1(O)C(=O)CO
- Ratio [7]: 2.33

Compound: Cc1ccccc1-n1c(-c2sc(Nc3ccccc3)nc2C)nc2ccccc2c1=O
- IC50 (Transcription factor Jun [8]): 5.5 µM

Compound: O=C(Nc1cc(Cl)cc(Cl)c1)c1cc(Cl)ccc1O
- inhibition (Transcription factor Jun [9]): 74.8%
- inhibition (Transcription factor Jun [10]): 22.7%

Compound: C[C@@]12CC[C@H]3[C@]4(C)CCC[C@@](C)(C(=O)O)[C@H]4C[C@H](O)[C@]3(CC(=O)O1)C2
- Ratio [7]: 2.39

Compound: Cc1ccc(/C=C/C(=O)/C=C(O)/C=C/c2ccc(C)cc2)cc1
- IC50 (Transcription factor AP1 [11]): 8.98 µM

Compound: CC1=CC[C@@H]2[C@](CC#N)(CC[C@H]3[C@@]2(C)CCC[C@@]3(C)C(=O)O)C1
- Ratio [7]: 2.22

Compound: Cc1nc(Cl)ncc1C(=O)Nc1cc(Cl)cc(Cl)c1
- IC50 (Transcription factor Jun [2]): 0.5 µM

Compound: COc1ccc2nc(-c3cccs3)nc(NN3C(=O)C=C(C)C3=O)c2c1
- IC50 (Transcription factor Jun [2]): 0.003 µM

Compound: COc1cccc(/C=C/C(=O)/C=C(O)/C=C/c2cccc(OC)c2)c1
- IC50 (Transcription factor AP1 [11]): 5.4 µM

Compound: O=C(Nc1ccc(C(F)(F)F)cc1C(F)(F)F)c1cc(C(F)(F)F)nc(Cl)n1
- IC50 (Transcription factor Jun [2]): > 10 µM

Compound: CC(=O)c1ccc(-n2c(-c3cc(-c4ccncc4)c(N4CCOCC4)s3)nc3ccccc3c2=O)cc1
- IC50 (Transcription factor Jun [8]): 5 µM

Compound: O=C(Nc1cc(C(F)(F)F)cc(C(F)(F)F)c1)c1cc(Cl)ccc1O
- inhibition (Transcription factor Jun [9]): 89.1%
- inhibition (Transcription factor Jun [10]): 42.4%

Compound: C[C@H]1[C@H](C)CC[C@]2(COC(=O)c3ccccc3C(=O)O)CC[C@]3(C)C(=CC[C@@H]4[C@@]5(C)CC[C@H](OC(=O)c6ccccc6C(=O)O)C(C)(C)[C@@H]5CC[C@]43C)[C@H]12
- IC50 (Transcription factor AP1 [11]): 4 µM

Compound: C[C@@]12CC[C@@H]3[C@@](CC[C@H]4[C@@]3(C)CCC[C@@]4(C)C(=O)O)(C/C1=N\O)C2
- Ratio [7]: 4.87

Compound: CC(Cc1ccc(O)c(O)c1)C(C)Cc1ccc(O)c(O)c1 (stereo not drawn) [NORDIHYDROGUAIARETIC ACID]
- IC50 (Transcription factor AP1 [12]): 0.0079 µM

Compound: CC(=O)c1cnc(NN2C(=O)C=C(C)C2=O)nc1C(F)(F)F
- IC50 (Transcription factor Jun [2]): 4.4 µM

Compound: C[C@@]12CC[C@H]3[C@]4(C)CCC[C@@](C)(C(=O)O)[C@H]4C[C@H](O)[C@]3(CC1=O)C2
- Ratio [7]: 2.69

Compound: COC(=O)C1=CO[C@@H](O[C@@H]2O[C@H](CO)[C@@H](O)[C@H](O)[C@H]2O)[C@H]2[C@@H]1[C@@H]1O[C@@H]1[C@]2(O)C(=O)O/C=C(\C(=O)O)c1ccc(O)c(OC)c1
- IC50 (Transcription factor Jun [13]): 29 µM

Compound: CNc1nc(C)c(-c2nc3ccccc3c(=O)n2-c2ccccc2C)s1
- IC50 (Transcription factor Jun [8]): 5.5 µM

Compound: O=C(Nc1cc(C(F)(F)F)cc(C(F)(F)F)c1)c1cnc(Cl)cn1
- IC50 [1]: 4 µM
- IC50 (Transcription factor Jun [2]): 4 µM

Compound: O=C(Nc1cc(C(F)(F)F)cc(C(F)(F)F)c1)c1cc(I)ccc1O
- inhibition (Transcription factor Jun [9]): 82.4%
- inhibition (Transcription factor Jun [10]): 25.4%

Compound: O=C(Nc1cc(C(F)(F)F)cc(C(F)(F)F)c1)c1cnc(Cl)nc1Cl
- IC50 [1]: 0.6 µM

Compound: Cc1nc(Cl)ncc1C(=O)Nc1cc(C(F)(F)F)cc(C(F)(F)F)c1
- IC50 [1]: 0.05 µM

Compound: CCOC(=O)c1cnc(-c2cccs2)nc1NN1C(=O)C=C(C)C1=O
- IC50 [1]: 0.02 µM
- IC50 (Transcription factor Jun [2]): 0.02 µM
